Data from paper PMC8171087, “Pharmacological inhibition of noncanonical EED-EZH2 signaling overcomes chemoresistance in prostate cancer” (Theranostics, 2021).

Molecular target: embryonic ectoderm development (EED) (Homo sapiens, UniProt O75530)
Sequence (O75530 2-441): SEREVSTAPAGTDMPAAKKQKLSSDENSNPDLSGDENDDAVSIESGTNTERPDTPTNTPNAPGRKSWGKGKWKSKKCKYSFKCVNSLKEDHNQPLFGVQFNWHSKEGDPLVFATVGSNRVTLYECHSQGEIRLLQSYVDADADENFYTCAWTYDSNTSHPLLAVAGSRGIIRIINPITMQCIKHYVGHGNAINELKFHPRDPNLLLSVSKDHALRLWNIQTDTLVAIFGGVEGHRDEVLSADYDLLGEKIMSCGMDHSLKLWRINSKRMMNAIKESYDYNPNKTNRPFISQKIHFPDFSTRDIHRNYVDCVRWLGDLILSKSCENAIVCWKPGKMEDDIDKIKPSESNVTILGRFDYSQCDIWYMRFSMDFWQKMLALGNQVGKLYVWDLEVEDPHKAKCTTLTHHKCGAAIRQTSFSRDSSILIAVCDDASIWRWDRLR

Question: With `CCOP(=O)(OCC)C(NC(=O)[C@H](Cc1ccc(-c2ccccc2)cc1)NC(=O)/C=C/c1ccc(-c2ccccc2)cc1)P(=O)(OCC)OCC` [LG1980] as the molecule, how does the Kd read?
Answer: Its Kd is 2710 nM.
